Measured values published in patent US10233177B2, “TRPV1 vanilloid receptor antagonists with a bicyclic portion” (Serentrix LLC, priority 2010, dated 2019).
Read-outs that look alike come from different tables or passages of the source.

Target: TRPV1 (Rattus norvegicus (Rat), UniProt O35433)
Experiment: Ca2+ fluorescence measurements in cultured rat dorsal root ganglia neurons (capsaicin-induced calcium uptake)
Assay type: cell-based
Settings: for inhibition at 0.3 µM: DRG neuron; for IC50: Table 1, against capsaicin-evoked [Ca2+]i mobilization, read-out: IC50
[1] = Table 1, formula IA-C, 300 nM against calcium uptake induced by 30 nM capsaicin, rat DRG neurons, read-out: % inhibition at 300 nM
[2] = capsaicin-induced calcium uptake, rat DRG neurons, read-out: inhibition of the calcium uptake
[3] = 300 nM, rat DRG neurons, read-out: abolition of capsaicin response at 300 nM
[4] = Table 2, formula ID-E, 300 nM against calcium uptake induced by 30 nM capsaicin, rat DRG neurons, read-out: % inhibition at 300 nM

Chain of TRPV1 (O35433 whole entry): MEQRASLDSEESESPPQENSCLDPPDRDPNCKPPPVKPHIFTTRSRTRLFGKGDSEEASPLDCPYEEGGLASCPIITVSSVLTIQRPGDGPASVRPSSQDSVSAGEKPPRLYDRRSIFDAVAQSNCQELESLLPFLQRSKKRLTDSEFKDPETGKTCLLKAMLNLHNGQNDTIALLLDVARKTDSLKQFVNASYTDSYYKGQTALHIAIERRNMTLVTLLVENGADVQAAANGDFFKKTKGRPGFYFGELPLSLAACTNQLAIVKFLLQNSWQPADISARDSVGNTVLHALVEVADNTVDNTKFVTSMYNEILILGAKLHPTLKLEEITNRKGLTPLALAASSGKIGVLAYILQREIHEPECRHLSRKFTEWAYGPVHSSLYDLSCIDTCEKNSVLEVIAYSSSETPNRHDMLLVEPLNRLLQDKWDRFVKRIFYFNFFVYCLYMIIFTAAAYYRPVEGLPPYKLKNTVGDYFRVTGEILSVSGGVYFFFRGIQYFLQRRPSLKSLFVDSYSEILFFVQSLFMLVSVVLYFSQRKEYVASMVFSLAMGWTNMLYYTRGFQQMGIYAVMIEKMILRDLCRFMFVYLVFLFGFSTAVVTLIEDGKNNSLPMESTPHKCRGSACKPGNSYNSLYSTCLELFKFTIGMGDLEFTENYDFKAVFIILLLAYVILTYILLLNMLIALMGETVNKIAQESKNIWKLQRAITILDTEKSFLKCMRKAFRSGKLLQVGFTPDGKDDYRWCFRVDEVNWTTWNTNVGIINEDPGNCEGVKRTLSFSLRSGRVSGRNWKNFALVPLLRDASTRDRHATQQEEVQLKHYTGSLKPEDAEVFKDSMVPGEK

SMILES | inhibition at 0.3 µM [1] [%] | inhibition at 0.3 µM [2] [%] | also measured
O=C(NCc1ccc(Cl)nc1)Nc1cccc2[nH]c(=O)[nH]c12 [Example 21, 1-((6-chloropyridin-3-yl)methyl)-3-(2,3-dihydro-2-oxo-1H-benzo[d]imidazol-4-yl)urea] | 79 |  | 
O=C(NCc1ccc(C(F)(F)F)cc1Cl)Nc1cccc2oc(=O)[nH]c12 [Example 26, 1-(2-chloro-4-(trifluoromethyl)benzyl)-3-(2,3-dihydro-2-oxobenzo[d]oxazol-4-yl)urea] | 55 |  | 
O=C(NCc1ccc(C(F)(F)F)cc1)Nc1cccc2oc(=O)[nH]c12 [Example 24, 1-(4-(trifluoromethyl)benzyl)-3-(2,3-dihydro-2-oxobenzo[d]oxazol-4-yl)urea] | 40 |  | 
O=C(NCc1ccc(C(F)(F)F)cc1Cl)Nc1cccc2[nH]c(=O)[nH]c12 [Example 3, 1-(2-chloro-4-(trifluoromethyl)benzyl)-3-(2,3-dihydro-2-oxo-1H-benzo[d]imidazol-4-yl)urea] | 93 | > 80 | 
COc1cc(CNC(=O)CCCC/C=C/C(C)C)ccc1O [Capsaicin, capsaicin, reference compound] |  |  | dorsal root ganglia neurons with increase in [Ca2+] (capsaicin 0.3 μM): 95%
O=C(NCc1ccc(C(F)(F)F)cc1-n1cncn1)Nc1cccc2[nH]c(=O)[nH]c12 [Example 8, 1-(4-(trifluoromethyl)-2-(1H-1,2,4-triazol-1-yl)benzyl)-3-(2,3-dihydro-2-oxo-1H-benzo[d]imidazol-4-yl)urea] | 2 |  | 
Cc1ccc(CNC(=O)Nc2cccc3[nH]c(=O)[nH]c23)c(N2CCCCC2)c1 [Example 19, 1-(4-methyl-2-(piperidin-1-yl)benzyl)-3-(2,3-dihydro-2-oxo-1H-benzo[d]imidazol-4-yl)urea] | 99 | > 80 | inhibition at 0.3 µM [3]: ~100%
O=C(Cc1ccc(C(F)(F)F)cc1)Nc1cccc2[nH]c(=O)oc12 [Example 57, 2-(4-(trifluoromethyl)phenyl)-N-(2,3-dihydro-2-oxobenzo[d]oxazol-7-yl)acetamide] |  |  | inhibition at 0.3 µM [4]: 7%
O=C(NCc1ccc(C(F)(F)F)nc1N1CCCC1)Nc1cccc2[nH]c(=O)[nH]c12 [Example 39, 1-(2-oxo-1,3-dihydrobenzimidazol-4-yl)-3-[[2-pyrrolidin-1-yl-6-(trifluoromethyl)-3-pyridyl]methyl]urea] |  |  | abolition of capsaicin response at 300 nM (300 nM, rat DRG neurons): around 100%; % inhibition at 300 nM (Table 1, formula IA-C, 300 nM against calcium uptake induced by 30 nM capsaicin, rat DRG neurons): 98%; IC50 (rat DRG neurons): 9.5 nM; inhibition of the calcium uptake (capsaicin-induced calcium uptake, rat DRG neurons): more than 80%
O=C(NCc1ccc(C(F)(F)F)cc1N1CCCC1)Nc1cccc2[nH]c(=O)oc12 [Example 35, 1-(4-(trifluoromethyl)-2-(pyrrolidin-1-yl)benzyl)-3-(2,3-dihydro-2-oxobenzo[d]oxazol-7-yl)urea] | 90 | > 80 | 
O=C(NCc1ccc(C(F)(F)F)cc1N1CCOCC1)Nc1cccc2oc(=O)[nH]c12 [Example 32, 1-(4-(trifluoromethyl)-2-(4-morpholino)benzyl)-3-(2,3-dihydro-2-oxobenzo[d]oxazol-4-yl)urea] | 93 | > 80 | 
O=C(NCc1ccc(C(F)(F)F)cc1F)Nc1cccc2[nH]c(=O)[nH]c12 [Example 2, 1-(2-fluoro-4-(trifluoromethyl)benzyl)-3-(2,3-dihydro-2-oxo-1H-benzo[d]imidazol-4-yl)urea] | 28 |  | 
O=C(NCc1ccc(Cl)cc1C(F)(F)F)Nc1cccc2oc(=O)[nH]c12 [Example 28, 1-(4-chloro-2-(trifluoromethyl)benzyl)-3-(2,3-dihydro-2-oxobenzo[d]oxazol-4-yl)urea] | 40 |  | 
O=C(NCc1ccc(C(F)(F)F)cc1F)Nc1cccc2oc(=O)[nH]c12 [Example 25, 1-(2-fluoro-4-(trifluoromethyl)benzyl)-3-(2,3-dihydro-2-oxobenzo[d]oxazol-4-yl)urea] | 40 |  | 
O=C(Cc1ccc(C(F)(F)F)cc1)Nc1cccc2[nH]c(=O)[nH]c12 [Example 55, 2-(4-(trifluoromethyl)phenyl)-N-(2,3-dihydro-2-oxo-1H-benzo[d]imidazol-4-yl)acetamide] |  |  | inhibition at 0.3 µM [4]: 10%
O=C1COc2c(cccc2NC(=O)NCc2ccc(Cl)nc2)N1 [Example 54, 1-((6-chloropyridin-3-yl)methyl)-3-(3,4-dihydro-3-oxo-2H-benzo[b][1,4]oxazin-8-yl)urea] | 55 |  | 
O=C1COc2c(cccc2NC(=O)NCc2ccc(C(F)(F)F)cc2)N1 [Example 45, 1-(4-(trifluoromethyl)benzyl)-3-(3,4-dihydro-3-oxo-2H-benzo[b][1,4]oxazin-8-yl)urea] | 100 | > 80 | inhibition at 0.3 µM [3]: ~100%

The next lines start with results.

inhibition at 0.3 µM [1] [%] | inhibition at 0.3 µM [2] [%] | SMILES | also measured
40 |  | CN(C)CCOc1nc(C(F)(F)F)ccc1CNC(=O)Nc1cccc2[nH]c(=O)[nH]c12 [Example 72, 1-[[2-(2-dimethylaminoethoxy)-6-(trifluoromethyl)-3-pyridyl]methyl]-3-(2-oxo-1,3-dihydrobenzimidazol-4-yl)urea] | IC50 (rat DRG neurons): 6 nM
80 | > 80 | CN(C)c1nc(C(F)(F)F)ccc1CNC(=O)Nc1cccc2[nH]c(=O)[nH]c12 [Example 69, 1-[[2-dimethylamino-6-(trifluoromethyl)-3-pyridyl]methyl]-3-(2-oxo-1,3-dihydrobenzimidazol-4-yl)urea] | IC50 (rat DRG neurons): 92 nM
90 | > 80 | COc1nc(C(F)(F)F)ccc1CNC(=O)Nc1cccc2c1OCC(=O)N2 [Example 82, 1-[[2-methoxy-6-(trifluoromethyl)-3-pyridyl]methyl]-3-(3-oxo-4H-1,4-benzoxazin-8-yl)urea] | IC50 (rat DRG neurons): 54 nM
100 | > 80 | O=C1COc2c(cccc2NC(=O)NCc2ccc(C(F)(F)F)nc2N2CCCC2)N1 [Example 87, 1-(3-oxo-4H-1,4-benzoxazin-8-yl)-3-[[2-pyrrolidin-1-yl-6-(trifluoromethyl)-3-pyridyl]methyl]urea] | inhibition at 0.3 µM [3]: ~100%; IC50 (rat DRG neurons): 9 nM
12 |  | CN(C)CCOc1cc(C(F)(F)F)ccc1CNC(=O)Nc1cccc2c1OCC(=O)N2 [Example 92, 1-[[2-(2-dimethylaminoethoxy)-4-(trifluoromethyl)phenyl]methyl]-3-(3-oxo-4H-1,4-benzoxazin-8-yl)urea] | 
93 | > 80 | CC(C)Oc1nc(C(F)(F)F)ccc1CNC(=O)Nc1cccc2[nH]c(=O)[nH]c12 [Example 68, 1-[[2-isopropoxy-6-(trifluoromethyl)-3-pyridyl]methyl]-3-(2-oxo-1,3-dihydrobenzimidazol-4-yl)urea] | 
71 |  | O=C(NCc1ccc(C(F)(F)F)nc1)Nc1cccc2[nH]c(=O)[nH]c12 [Example 66, 1-(2-oxo-1,3-dihydrobenzimidazol-4-yl)-3-[[6-(trifluoromethyl)-3-pyridyl]methyl]urea] | 
100 | > 80 | CC(C)(C)c1ccc(CNC(=O)Nc2cccc3[nH]c(=O)[nH]c23)c(Cl)c1 [Example 74, 1-[(4-tert-butyl-2-chloro-phenyl)methyl]-3-(2-oxo-1,3-dihydrobenzimidazol-4-yl)urea] | inhibition at 0.3 µM [3]: ~100%
